# Test results from PubChem BioAssay (NCI).
#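 In this assay, cells in 96-well plates receive the compound at five concentrations for 48 hours. Endpoints are linearly interpolated between the surrounding concentrations. At the GI50, growth is halved. At the TGI there is no net growth.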
# Key:
# Assay in all cases: growth of human tumour cells (NCI), 48 h
# SF-295 CNS = test system: SF-295 CNS
# UACC-257 melanoma = test system: UACC-257 melanoma
# KM12 colon = test system: KM12 colon
# NCI-H460 lung = test system: NCI-H460 lung
# SK-MEL-28 melanoma = test system: SK-MEL-28 melanoma
# PC-3 prostate = test system: PC-3 prostate
# UACC-62 melanoma = test system: UACC-62 melanoma
# SNB-75 CNS = test system: SNB-75 CNS
# MDA-MB-231 breast = test system: MDA-MB-231 breast
# HOP-92 NSCLC = test system: HOP-92 NSCLC
SMILES,TGI (SF-295 CNS) [µM],TGI (UACC-257 melanoma) [µM],TGI (KM12 colon) [µM],TGI (NCI-H460 lung) [µM],TGI (SK-MEL-28 melanoma) [µM],TGI (PC-3 prostate) [µM],TGI (UACC-62 melanoma) [µM],TGI (SNB-75 CNS) [µM],TGI (MDA-MB-231 breast) [µM],TGI (HOP-92 NSCLC) [µM],GI50 (SF-295 CNS) [µM],GI50 (UACC-257 melanoma) [µM],GI50 (KM12 colon) [µM],GI50 (NCI-H460 lung) [µM],GI50 (SK-MEL-28 melanoma) [µM],GI50 (PC-3 prostate) [µM],GI50 (UACC-62 melanoma) [µM],GI50 (SNB-75 CNS) [µM],GI50 (MDA-MB-231 breast) [µM],GI50 (HOP-92 NSCLC) [µM]
COC(=O)c1sc2c(c1C(=O)OC)C(=Nc1ccc(OC)cc1)SC2=Nc1ccc(OC)cc1,3.42,2.75,3.03,2.79,2.85,1.04,2.84,1.24,2.35,2.91,–,–,–,–,–,–,–,–,–,–
N#CC1=C(N)OC2=C(CCCc3ccc([N+](=O)[O-])cc32)C1c1ccc(Cl)cc1 (stereo not given),> 100,> 100,> 100,15.7,> 100,> 100,20.2,> 100,> 100,> 100,–,–,–,–,–,–,–,–,–,–
COC(=O)C(=O)C(C(=O)C(=O)Nc1cc(C)ccc1C)c1nc2ccccc2[nH]c1=O (stereo not given),> 100,> 100,> 100,> 100,> 100,> 100,> 100,> 100,> 100,> 100,–,–,–,–,–,–,–,–,–,–
Clc1ccc(Cc2nc3cc(Cl)c(Cl)cc3n2CC2CCCN3CCCCC23)cc1 (stereo not given),29.2,13,40,23.2,20.8,21.1,21.2,21.6,19.3,24.9,–,–,–,–,–,–,–,–,–,–
COC(=O)[C@@H]1CN(C(=O)Cc2ccccc2)C(=O)N1,> 100,> 100,> 100,> 100,> 100,> 100,> 100,> 100,> 100,> 100,–,–,–,–,–,–,–,–,–,–
CC1(C)OCC(/C=C\C(O)CC2(C)OCCO2)CO1 (stereo not given),> 100,> 100,> 100,> 100,> 100,> 100,> 100,> 100,> 100,> 100,–,–,–,–,–,–,–,–,–,–
CCOC(=O)c1cccc(N=NNc2cccc(C(=O)OCC)c2)c1,45.4,> 100,> 100,> 100,> 100,> 100,> 100,36.9,53.3,46.8,–,–,–,–,–,–,–,–,–,–
CNC(=O)OC1/C(C)=C\C(C)C(O)C(OC)CC(C)CC2=C(OC)C(=O)C=C(C2=O)N(C)C(=O)/C(C)=C/C=C\C1OC (stereo not given),46.5,19,26.3,39.7,19.2,26,17.6,28.6,6.44,16,–,–,–,–,–,–,–,–,–,–
CC(C)=CC(=O)c1[nH]c2ccccc2c1CC(=O)NCCc1cnc[nH]1,> 100,> 100,> 100,> 100,> 100,> 100,> 100,> 100,> 100,> 100,–,–,–,–,–,–,–,–,–,–
COc1cccc(C2c3cc4c(cc3OC(NNS(=O)(=O)c3ccc(C)cc3)C2C)OCO4)c1O (stereo not given),94.6,> 100,79.2,82,78.8,65.8,79.7,40.7,49.2,76.3,–,–,–,–,–,–,–,–,–,–
O=C1N[C@@H]([C@H]2CC[C@H](Cl)CN2)C(=O)N[C@H]1[C@H]1CC[C@H](Cl)CN1,5.36,15.1,19.1,2.88,31.1,18,3.53,3.65,6.43,7.95,–,–,–,–,–,–,–,–,–,–
CCOc1c2c(cc3c1C(=O)c1c(OC)cccc1C3=O)C=C(OC)CC2,> 25,> 25,> 25,> 25,> 25,> 25,> 25,> 25,> 25,> 25,–,–,–,–,–,–,–,–,–,–
O=[N+]([O-])C(/C=C(\Cl)[N+](=O)[O-])=C(N1CCOCC1)N1CCOCC1,> 100,> 100,> 100,> 100,> 100,> 100,> 100,> 100,43.7,76.4,–,–,–,–,–,–,–,–,–,–
CCn1c(=O)c2nc(SC)sc2n(-c2ccccc2)c1=S,> 100,> 100,> 100,> 100,> 100,> 100,97.6,> 100,> 100,> 100,–,–,–,–,–,–,–,–,–,–
O=C(c1ccccc1)c1nn(-c2cccc(Cl)c2)c2nc3nc(-c4ccccc4)cc(=O)n3nc12,> 25,> 25,> 25,> 25,> 25,> 25,> 25,> 25,> 25,> 25,> 25,> 25,> 25,> 25,> 25,> 25,> 25,> 25,> 25,> 25
COc1ccc(/C=N/n2c(-c3ccccc3)n[nH]c2=O)c(OC)c1,> 100,> 100,> 100,> 100,> 100,> 100,> 100,> 73.2,> 100,> 100,–,–,–,–,–,–,–,–,–,–

SMILES,TGI (SF-295 CNS) [µM],TGI (UACC-257 melanoma) [µM],TGI (KM12 colon) [µM],TGI (NCI-H460 lung) [µM],TGI (SK-MEL-28 melanoma) [µM],TGI (PC-3 prostate) [µM],TGI (UACC-62 melanoma) [µM],TGI (SNB-75 CNS) [µM],TGI (MDA-MB-231 breast) [µM],TGI (HOP-92 NSCLC) [µM],GI50 (SF-295 CNS) [µM],GI50 (UACC-257 melanoma) [µM],GI50 (KM12 colon) [µM],GI50 (NCI-H460 lung) [µM],GI50 (SK-MEL-28 melanoma) [µM],GI50 (PC-3 prostate) [µM],GI50 (UACC-62 melanoma) [µM],GI50 (SNB-75 CNS) [µM],GI50 (MDA-MB-231 breast) [µM],GI50 (HOP-92 NSCLC) [µM]
C=CCCCCCCCCCOC1C=CC(O)C(CO)O1 (stereo not given),> 100,61.4,85.1,63.7,> 100,86.4,97.4,> 100,> 100,> 100,–,–,–,–,–,–,–,–,–,–
C/C(=C\COP(=O)(O)OP(=O)(O)O)CC/C=C(\C)CNc1c(F)c(F)c(F)c(F)c1F,> 100,> 100,> 100,> 100,> 100,> 100,> 100,> 31.6,> 100,> 100,–,–,–,–,–,–,–,–,–,–
CC(=O)CC(O)(C(F)(F)Cl)C(F)(Cl)Cl (stereo not given),> 10,> 10,> 10,> 10,> 10,> 10,> 10,> 10,> 10,> 10,–,–,–,–,–,–,–,–,–,–
COc1ccc2cc(CNCCCCCCNC(=O)Nc3cccc4ccccc34)ccc2c1,> 100,> 100,> 100,> 100,> 100,> 100,> 100,> 100,> 100,> 100,–,–,–,–,–,–,–,–,–,–
c1cc(CSP234N5CCN2CCN3CCN4CC5)cc(CSP234N5CCN2CCN3CCN4CC5)c1,46.2,34.9,47.1,> 100,44.6,> 100,36.6,76.4,38.2,64.5,–,–,–,–,–,–,–,–,–,–
CCCCCCCC(=O)NC(C)(C)C(=O)NCC(=O)NC(CC(C)C)C(=O)NC(C)(C)C(=O)NCC(=O)NCC(=O)NC(CC(C)C)C(=O)NC(C)(C)C(=O)NCC(=O)NC(C(=O)NC(CO)CC(C)C)C(C)CC (stereo not given),7.76,7.96,5.15,8.11,7.32,7.08,7.54,7.28,7.38,6.36,–,–,–,–,–,–,–,–,–,–
C(/C=C(\Nc1ccccc1)c1ccc2ccccc2c1)=Nc1ccccc1,4.28,19.2,12.2,11.9,0.961,11.8,3.37,8.39,4.1,28.1,–,–,–,–,–,–,–,–,–,–
Cc1ccc(NC(c2ccccc2)P(=O)(c2ccccc2)c2ccccc2)cc1 (stereo not given),> 100,> 100,> 100,> 100,> 100,> 100,> 100,41.3,> 100,67.4,–,–,–,–,–,–,–,–,–,–
Cc1c(CCCl)c(Cl)n2c(nc3ccccc32)c1C#N,4.34,3.07,2.54,1.69,4.97,2.4,2.51,14.1,17.9,2.99,–,–,–,–,–,–,–,–,–,–
O=C(OC1C#CCSCC#C/C=C\1)c1ccc2c(c1)C(=O)c1ccccc1C2=O (stereo not given),> 100,> 100,> 100,> 100,> 100,> 100,34.2,> 100,82.4,13.7,–,–,–,–,–,–,–,–,–,–
NC1=Nc2ncccc2C(=O)NN1,> 10,> 10,> 10,> 10,> 10,> 10,> 10,> 10,> 10,> 10,–,–,–,–,–,–,–,–,–,–
C[N+]1(CC[N+]2(C)CCCC2c2cccnc2)CCCC1c1cccnc1 (stereo not given),> 100,> 100,> 100,> 100,> 100,> 100,> 100,> 100,> 100,> 100,–,–,–,–,–,–,–,–,–,–
CCC(CCCC[C@H]1CC[C@@H]2CC(=O)C[C@H]12)OC (stereo not given in full),> 100,> 100,> 100,> 100,> 100,> 100,> 100,> 100,> 100,> 100,–,–,–,–,–,–,–,–,–,–
Cc1[nH]c2c(C)c3c([nH]c4ccc(Cl)cc43)c(C)c2c(=O)c1C,36.2,> 100,77.2,13.5,> 100,22.4,> 88.3,> 92.5,7.54,> 100,–,–,–,–,–,–,–,–,–,–
O=C(OC[C@H]1C[C@H]2C(=O)OCCC[C@H]2O1)c1ccccc1,> 100,> 100,> 100,> 100,> 100,> 100,> 100,> 100,> 100,> 100,–,–,–,–,–,–,–,–,–,–
O=C1OCOC2(CCCC2)C1c1ccccc1 (stereo not given),> 100,> 100,> 100,> 100,> 100,> 100,> 100,> 100,> 100,> 100,–,–,–,–,–,–,–,–,–,–
